# In patent US20160068818A1, “A METHOD FOR GENERATING INDUCED PLURIPOTENT STEM CELLS” (Glykos Finland Oy, priority 2013, published 2016):
# Entries after “also recorded” stand apart in the source; their conditions may differ.
# Experiments:
# Type in all cases: cell-based, human
# [1] = tested on: hESC and hiPSC (FES 29, HEL 11.4) attachment to ECA; experiment: Validation of binding specificity: inhibition of cell attachment onto ECA; conditions: for inhibition of cell attachment onto ECA: 100 mM in culture media, attached cells counted after 20 h; for total number of attached cells with vs without pinacidil: on ECA, counted 20 h after plating
# Experimental: Cells were passaged and plated as described earlier. The two compounds expected to act as specific binding inhibitors for ECA were lactose monohydrate (Sigma-Aldrich, 100 mM) and lacto-N-neotetraose (Kyowa Hakko Kogyo, 100 mM). Saccharose (Sigma-Aldrich, 100 mM) was used as a control. The inhibitors were added to culture media at the time of passaging and the attached cells were counted after 20 hours.
# To assess the specificity of the cell-lectin interaction in supporting stem cell attachment to the growth surface, we performed inhibition experiments with specific disaccharide inhibitors and control disaccharides. […] The experiments were performed either in the presence (FIG. 4A) of absence (FIG. 4B) of pinacidil. Even if the effect of the inhibitors was similar in both conditions, the total number of attached cells was […] with pinacidil.
# The attached cells were counted 20 h after plating. Data represent the mean (±SEM) of both cell lines, FES 29 and HEL 11.4. The total number of attached cells was 2-4 fold higher when Pinacidil was used (p<0.001).
# [2] = tested on: hPSC cells; experiment: Clonogenicity assay on dispersed single cells; conditions: pinacidil 100 μM during passaging
# Experimental: Cells were dissociated with TrypLE for 5 minutes and passed through an 80-μm cell strainer (Becton Dickinson). Dissociated single cells from either ECA or Matrigel were seeded onto both ECA and Matrigel (35 cells/cm^2) and cultured in mouse embryonic fibroblast-conditioned medium (CM) supplemented with 8 ng/ml basic fibroblast growth factor (bFGF). Pinacidil (100 μM) was used during passaging. To evaluate clonogenic capacity, cells were alkaline phosphatase stained and colony numbers were counted 10 days after plating.
# The ability of the ECA matrix to support clonogenicity of hPSC cells was studied by plating dispersed cells first adapted to ECA or Matrigel for at least two passages on either of the two matrices at the density of 35 cells/cm^2.
# [3] = tested on: hPSC lines FES29 and HEL 11.4; experiment: Long-term culture of hPSC lines on ECA-coated plates (markers, qPCR array, karyotype); conditions: mEF conditioned media
# Experimental: Cells were passaged by using 0.1 mg/ml collagenase IV (Invitrogen) for 5 min at +37° C. and harvested onto ECA (Sigma-Aldrich) and Matrigel (Becton Dickinson) coated plates and cultured either in StemPro® or in mEF conditioned-medium (CM) (KO-DMEM supplemented with 20% KO-SR, 2 mM Glutamax, 0.1 mM β-mercaptoethanol, 0.1 mM non-essential amino acids (NEAA), all from Invitrogen, Carlsbad, Calif., USA) and supplemented with 8 ng/ml recombinant human bFGF (Invitrogen, Carlsbad, Calif., USA). Pinacidil (Sigma-Aldrich, 100 μM) was added to culture media during passaging. In some experiments, Y-27632 (10 μM) was added to culture media during passaging. In all experiments MatrigelTM (BD Biosciences) was used as control matrix. The Matrigel plates were prepared as recommended by the manufacturer. […] Real time SYBR Green quantitative PCR (qPCR) analyses was performed with Corbett Rotor-Gene 6000 (Corbett Life Science, Sydney, Australia) using the following conditions: 95° C. […] The data was analyzed according to comparative Ct method (Applied Biosystems, User Bulletin #2). […] All samples and controls were analyzed in duplicates. […] Karyotype was detected by G-banding technique in cytogenetics laboratory of the […] […] Long-term culturing on ECA-coated plates was evaluated with hPSCs lines (FES29 and HEL 11.4) and the results were compared to the same cell lines cultured on Matrigel. […]
compound,measurement,setting,value
CC(=O)N[C@H]1[C@H](O[C@H]2[C@@H](O)[C@@H](CO)O[C@@H](O[C@H]3[C@H](O)[C@@H](O)C(O)O[C@@H]3CO)[C@@H]2O)O[C@H](CO)[C@@H](O[C@@H]2O[C@H](CO)[C@H](O)[C@H](O)[C@H]2O)[C@@H]1O (mixture of isomers) [lacto-N-neotetraose],inhibition of cell attachment onto ECA,[1],as effective as lactose; also recorded: inhibited significantly
"O.OC[C@H]1O[C@@H](O[C@H]2[C@H](O)[C@@H](O)C(O)O[C@@H]2CO)[C@H](O)[C@@H](O)[C@H]1O (some centres unmarked) [Lactose, lactose monohydrate]",inhibition of cell attachment onto ECA,"[1]; listed as lactose monohydrate, monohydrate",inhibited significantly
same,inhibition of cell attachment onto ECA,[1]; monohydrate,inhibited cell attachment effectively
CC(N/C(=N\C#N)Nc1ccncc1)C(C)(C)C (centres unmarked) [pinacidil],development and survival of single-cell derived clones,[2],highly useful
same,total number of attached cells with vs without pinacidil,[1],4 fold
same,total number of attached cells with vs without pinacidil,[1]; listed as Pinacidil,2-4 fold
same,cell attachment and morphology on ECA without/with Rho-associated kinase inhibitor during passaging,[3],Without pinacidil the cells did not attach as effectively
OC[C@H]1O[C@@](CO)(O[C@H]2O[C@H](CO)[C@@H](O)[C@H](O)[C@H]2O)[C@@H](O)[C@@H]1O [saccharose],inhibition of cell attachment onto ECA,[1],no inhibitory activity
